# Patent US10226041B2, “Compositions and methods for improving the quality of processed sperm” (Inguran, LLC, priority 2011, dated 2019)
# System: sex-sorted sperm
# Assay: DNA fragmentation of sex-sorted sperm (Halomax for animals kit)
# Assay type: cell-based, cattle
# Method: The levels of DNA fragmentation were also screened using a DNA fragmentation ‘Halomax for animals’ kit (Halotech DNA, sl, Madrid, Spain) to determine if there were any advantageous effects of using the antioxidants during the staining and processing of sex-sorted sperm. Two different breeds of cattle, Jersey and Holstein, were examined using two different concentrations of antioxidant, 0.25 mg/ml and 0.5 mg/ml of vitamin B12 with the 3 step protocol adding the same concentration of OSR during cell staining, in the collection catch fluid and prior to cryopreservation. One of the bulls was used to evaluate the effect of addition or omission of OSR at one or more of the sperm sorting steps. Motility and the level of DNA fragmentation were both recorded.
substance,measurement,setting,value
vitamin B12,% DNA Fragmentation,"0 hr, 1 step-stain (+−−), Bull C (Jersey), Trial 1",0.7%
same,% DNA Fragmentation,"0 hr, 1 step-stain (+−−), Bull C (Jersey), Trial 2",0.7%
same,% DNA Fragmentation,"0 hr, 2 step-stain (++−), Bull C (Jersey), Trial 1",0.3%
same,% DNA Fragmentation,"0 hr, 2 step-stain (++−), Bull C (Jersey), Trial 2",0.3%
same,% DNA Fragmentation,"0 hr, 3 step (+++), Bull C (Jersey), Trial 1",0%
same,% DNA Fragmentation,"0 hr, 3 step (+++), Bull C (Jersey), Trial 2",0.3%
same,% DNA Fragmentation,"0 hr, vitamin B12 0.5 mg/ml, 3 step, Bull A (Jersey)",0.3%
same,% DNA Fragmentation,"0 hr, vitamin B12 0.5 mg/ml, 3 step, Bull B (Holstein)",0.3%
same,% DNA Fragmentation,"24 hr, 1 step-stain (+−−), Bull C (Jersey), Trial 1",1%
same,% DNA Fragmentation,"24 hr, 1 step-stain (+−−), Bull C (Jersey), Trial 2",1%
same,% DNA Fragmentation,"24 hr, 2 step-stain (++−), Bull C (Jersey), Trial 1",1%
same,% DNA Fragmentation,"24 hr, 2 step-stain (++−), Bull C (Jersey), Trial 2",0.7%
same,% DNA Fragmentation,"24 hr, 3 step (+++), Bull C (Jersey), Trial 1",0.3%
same,% DNA Fragmentation,"24 hr, 3 step (+++), Bull C (Jersey), Trial 2",0.3%
same,% DNA Fragmentation,"24 hr, vitamin B12 0.5 mg/ml, 3 step, Bull A (Jersey)",0.7%
same,% DNA Fragmentation,"24 hr, vitamin B12 0.5 mg/ml, 3 step, Bull B (Holstein)",0.3%
same,% DNA Fragmentation,"48 hr, 1 step-stain (+−−), Bull C (Jersey), Trial 1",1.3%
same,% DNA Fragmentation,"48 hr, 1 step-stain (+−−), Bull C (Jersey), Trial 2",1%
same,% DNA Fragmentation,"48 hr, 2 step-stain (++−), Bull C (Jersey), Trial 1",1%
same,% DNA Fragmentation,"48 hr, 2 step-stain (++−), Bull C (Jersey), Trial 2",0.7%
same,% DNA Fragmentation,"48 hr, 3 step (+++), Bull C (Jersey), Trial 1",0.3%
same,% DNA Fragmentation,"48 hr, 3 step (+++), Bull C (Jersey), Trial 2",0.7%
same,% DNA Fragmentation,"48 hr, vitamin B12 0.5 mg/ml, 3 step, Bull A (Jersey)",1.3%
same,% DNA Fragmentation,"48 hr, vitamin B12 0.5 mg/ml, 3 step, Bull B (Holstein)",0.7%
